Experiments:
HER-2 = molecular target: T1, HER-2 (Homo sapiens, UniProt P04626); experiment: Inhibition of HER-2 phosphorylation in Calu-3 tumor cell line; format: cell-based; details: compound concentration 1 μM; Calu-3 cells, 16 h incubation; pY 1248 in HER-2; relative to DMSO control; read-out: Percent inhibition of HER-2-phosphorylation
T1 construct: endogenous in cells; host or cells: Calu-3 (ATCC HTB-55) human non-small-cell lung cancer cells
Experimental: Inhibition of HER-2 Phosphorylation in Calu-3 Tumor Cell Line
2×10^5 Calu-3 (ATTC HTB-55) cells per well were plated in a 12-well plate. After 4 days cells were starved for 16 h in Dulbecco's Modified Eagle Medium (DMEM)/0.5% Fetal Calf Serum (FCS)/1% Glutamine. During this 16 h period cells were incubated with a solution of the test compound in dimethylsulfoxide (DMSO), so that the final concentration of the compound is 1 μM and the final volume of DMSO is 0.5%. Afterwards cells were lysed in lyses buffer containing 1% octyl phenol ethoxylate (Triton®X-100), 10% Glycerol, 1 mM Ethylene glycol-bis(2-aminoethylether)-N,N,N′,N′-tetraacetic acid (EGTA), 1.5 mM MgCl2, 150 mM NaCl, 50 mM 4-(2-hydroxyethyl)-1-piperazineethanesulfonic acid (HEPES) buffer pH 7.5, 1 mM Phenylmethylsulfonyl fluoride (PMSF), 10 μg/mL Aprotinin (a naturally occurring protein that is obtained and purified from cow's lungs) and […] Orthovanadate (Na3VO4). Cell lysates were analyzed on a Sodium Dodecyl Sulfate Polyacrylamide Gel Electrophoresis (SDS PAGE) and after transfer to a nitrocellulose membrane detected with an antibody specifically recognizing the pY 1248 in HER-2 (phosphorylated tyrosine residue 1248 of human epidermal receptor 2). After incubation with an anti rabbit antibody coupled to POD (Peroxidase available from Biorad, Munich, Germany) signals were detected by chemiluminescence (ECL, Amersham). Inhibition of HER-2 phosphorylation is calculated as percentage of the control, which is treated with DMSO only. This percentage was calculated according to the following formula: Inhibition in %=100−(Phosphorylated-HER2-Signal of Test Sample*100/Phosphorylated-HER2-Signal DMSO-control).

T1 sequence (P04626 23-1255): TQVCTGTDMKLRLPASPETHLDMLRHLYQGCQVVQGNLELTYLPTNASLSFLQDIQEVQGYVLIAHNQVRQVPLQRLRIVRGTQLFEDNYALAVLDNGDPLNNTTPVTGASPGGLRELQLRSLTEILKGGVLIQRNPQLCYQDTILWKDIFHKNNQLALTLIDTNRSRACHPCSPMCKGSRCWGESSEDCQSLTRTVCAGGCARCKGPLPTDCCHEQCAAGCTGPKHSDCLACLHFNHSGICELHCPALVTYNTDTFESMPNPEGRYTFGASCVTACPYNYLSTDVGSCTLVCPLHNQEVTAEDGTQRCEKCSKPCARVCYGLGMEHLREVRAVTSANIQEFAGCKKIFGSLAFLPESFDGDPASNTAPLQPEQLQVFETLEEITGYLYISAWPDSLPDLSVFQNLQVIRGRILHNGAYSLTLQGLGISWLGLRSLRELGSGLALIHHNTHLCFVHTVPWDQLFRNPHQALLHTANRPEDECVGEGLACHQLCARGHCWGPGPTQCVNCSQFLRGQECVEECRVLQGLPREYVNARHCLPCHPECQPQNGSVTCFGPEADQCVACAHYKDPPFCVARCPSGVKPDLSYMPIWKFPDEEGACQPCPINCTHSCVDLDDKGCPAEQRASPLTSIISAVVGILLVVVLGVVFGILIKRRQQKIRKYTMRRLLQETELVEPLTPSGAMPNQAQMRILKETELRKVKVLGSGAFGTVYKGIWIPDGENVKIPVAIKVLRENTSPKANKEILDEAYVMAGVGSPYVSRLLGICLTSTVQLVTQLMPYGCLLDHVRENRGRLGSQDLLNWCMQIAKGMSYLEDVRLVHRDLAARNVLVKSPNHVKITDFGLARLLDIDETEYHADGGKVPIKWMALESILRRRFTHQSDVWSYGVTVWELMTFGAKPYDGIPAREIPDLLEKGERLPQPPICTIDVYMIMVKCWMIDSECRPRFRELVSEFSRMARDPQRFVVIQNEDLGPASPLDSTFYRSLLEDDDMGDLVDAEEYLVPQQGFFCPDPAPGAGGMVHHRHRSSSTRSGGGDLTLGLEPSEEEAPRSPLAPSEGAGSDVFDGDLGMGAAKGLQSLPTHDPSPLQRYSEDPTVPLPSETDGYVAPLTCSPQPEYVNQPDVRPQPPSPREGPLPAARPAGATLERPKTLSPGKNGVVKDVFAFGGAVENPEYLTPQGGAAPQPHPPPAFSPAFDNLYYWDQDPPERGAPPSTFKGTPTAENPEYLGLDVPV

Row | SMILES | inhibition at 1 µM (HER-2) [%] | melting point [°C]
1 | [O-][S+](CCn1ccnn1)Cc1ccc(OCc2coc(C=Cc3ccc(SC(F)(F)F)cc3)n2)cc1 (centres unmarked) [Example 4, 1-[2-(4-{2-[2-(4-Trifluoromethylsulfanyl-phenyl)-vinyl]-oxazol-4-ylmethoxy}-phenylmethanesulfinyl)-ethyl]-1H-[1,2,3]triazole] | – | 182 to 184
2 | FC(F)(F)Oc1ccc(C=Cc2nc(COc3ccc(CSCCn4ccnn4)cc3)co2)cc1 [Example 1, 1-[2-(4-{2-[2-(4-Trifluoromethoxy-phenyl)-vinyl]-oxazol-4-ylmethoxy}-benzylsulfanyl)-ethyl]-1H-[1,2,3]triazole] | 65 to 80 | –
3 | FC(F)(F)c1ccc(C=Cc2nc(COc3ccc(CSCCn4ccnn4)cc3)co2)cc1 [Example 6, 1-[2-(4-{2-[2-(4-Trifluoromethyl-phenyl)-vinyl]-oxazol-4-ylmethoxy}-benzylsulfanyl)-ethyl]-1H-[1,2,3]triazole] | 55 to 65 | –
4 | [O-][S+](CCn1ccnn1)Cc1ccc(OCc2coc(/C=C/c3ccc(OC(F)(F)F)cc3)n2)cc1 (centres unmarked) [Example 3, 1-[2-(4-{2-[2-(E)-(4-Trifluoromethoxy-phenyl)-vinyl]-oxazol-4-ylmethoxy}-phenylmethanesulfinyl)-ethyl]-1H-[1,2,3]triazole] | > 80 | –

Continued, values first:

Row | inhibition at 1 µM (HER-2) [%] | melting point [°C] | SMILES
5 | 65 to 80 | – | Fc1cc(Cl)ccc1/C=C/c1nc(COc2ccc(CSCCn3ccnn3)cc2)co1 [Example 9, 1-[2-(4-{2-[2-(E)-(4-Chloro-2-fluoro-phenyl)-vinyl]-oxazol-4-ylmethoxy}-benzylsulfanyl)-ethyl]-1H-[1,2,3]triazole]
6 | > 80 | – | Fc1cc(C(F)(F)F)ccc1/C=C/c1nc(COc2ccc(CSCCn3ccnn3)cc2)co1 [Example 7, 1-[2-(4-{2-[2-(E)-(2-Fluoro-4-trifluoromethyl-phenyl)-vinyl]-oxazol-4-ylmethoxy}-benzylsulfanyl)-ethyl]-1H-[1,2,3]triazole]
7 | 55 to 65 | – | O=S(=O)(CCn1ccnn1)Cc1ccc(OCc2coc(/C=C/c3ccc(C(F)(F)F)cc3F)n2)cc1 [Example 10, 1-[2-(4-{2-[2-(E)-(2-Fluoro-4-trifluoromethyl-phenyl)-vinyl]-oxazol-4-ylmethoxy}-phenylmethanesulfonyl)-ethyl]-1H-[1,2,3]triazole]
8 | > 80 | – | [O-][S+](CCn1ccnn1)Cc1ccc(OCc2coc(/C=C/c3ccc(C(F)(F)F)cc3F)n2)cc1 (centres unmarked) [Example 11, 1-[2-(4-{2-[2-(E)-(2-Fluoro-4-trifluoromethyl-phenyl)-vinyl]-oxazol-4-ylmethoxy}-phenylmethanesulfinyl)-ethyl]-1H-[1,2,3]triazole]

Reference: patent US7005526B2, “Thioether derivatives” (Hoffmann-La Roche Inc., priority 2004, dated 2006)
